Measured values from patent EP0705258B1, “AZOLYL-CYCLIC AMINE DERIVATIVES WITH IMMUNOMODULATORY ACTIVITY” (Knoll AG, priority 1993, dated 1995).
pIC50: −log10 of the molar value.

System: Zymosan Stimulated Macrophages
Assay: Inhibition of Arachidonic Acid Release from Zymosan Stimulated Macrophages (Test D)
Type: cell-based, MF1 mice
Conditions: Mus musculus, Macrophage, tested at 100, 50, 20, 10, 5 and 1 µM
Procedure: Female MF1 mice (weighing 20 to 25 g) were killed using a rising concentration of CO2. The mice were laid on their backs and the abdomens wiped with 70% alcohol. The skin was pulled back, exposing the peritoneal wall. Medium A (5 ml) (see below) was injected into the peritoneal cavity of each mouse followed by approximately 1 ml of air using a 20 ml syringe and a 21G x 40 mm needle in order to form a suspension of macrophage cells. The medium and cells were then removed using a 19G x 40 mm needle. The resulting suspension was returned to a sterile beaker kept on ice. The extracts from all the mice were pooled and this pooled cell suspension was counted using a Coulter counter and adjusted to a final cell count of 1 - 1.3 x 10^6 cells/ml prior to labelling with [^3H]-arachidonic acid. Typically five mice provided sufficient cells for each multiwell plate. Sufficient [^3H]arachidonic acid in ethanol to give a final concentration of 1.6 µCi/ml (equivalent to 40 µCi/plate) was blown to dryness under nitrogen. The arachidonic acid was then resuspended in 1 or 2 ml of the cell suspension which was then mixed with the remainder of the cell suspension in a centrifuge bottle. The labelled cell suspension was then plated out into sterile plastic 96 flat-bottomed well plates (250 µl per well) and incubated overnight at 37°C in a moist atmosphere of 5% CO2, 95% air. The following day, non-adherent cells were removed by washing 3 times with sterile phosphate buffered saline (PBS). The adherent peritoneal macrophages were then cultured for a further 24 hours in the presence or absence of drugs, in medium B (see below) at 37° in a 5% CO2 atmosphere in order to measure the effects of drugs on the spontaneous release of arachidonic acid in the absence of stimulus. After this incubation, supernatants were removed to give media 1 and stored in sealed multi-well plates at 4°C prior to scintillation counting. Drugs which potentiated spontaneous release of arachidonic acid (125% of controls) were deemed to be toxic at the concentration at which this phenomenon occurred. The supernatants were replaced by fresh medium C containing fresh drug and a stimulus. Three drugs were tested at six concentrations (100, 50, 20, 10, 5 and 1 µM) in replicates of four on each plate. The other wells contained controls consisting of a positive control (e.g. dexamethasone), medium (B) only and medium C only. Incubation was then continued for a further 5 hours, whereupon the supernatants were collected to give media 2 and the adherent cells washed with PBS. The cells were then lysed with 100 µl of 0.1% TRITON® X100 in a 0.1% solution of bovine serum albumin in 0.9% saline and mechanically disrupted to give cell lysates. These supernatants (media 2) and cell lysates (Cells) were also stored in sealed multi-well plates at 4°C prior to scintillation counting. 200 µl aliquots of media, or 100 µl aliquots of cells were counted using 2 ml of OPTIPHASE "HIGH SAFE" (Trademark of LKB) as scintillant. […] The value for the arachidonic acid release in the absence of stimulus (spontaneous, cpm of media 2) from cells which had been exposed to neither stimulus nor drug was subtracted from all equivalent values (cpm media 2, stimulated with or without drug) to give the net stimulated release. The percentage inhibition of arachidonic acid release caused by a drug may then be calculated using the following equation. % Inhibition = 100 -(net stimulated release in presence of drug x 100)/(net stimulated release in absence of drug) [formula] […] The zymosan stimulant was prepared as follows:- zymosan (200mg) (supplied by Sigma) was added to PBS (20ml). The mixture was boiled for 30 minutes and the volume restored to 20ml with water. The zymosan was harvested by centrifugation at 500Xg for 5 minutes, washed twice by resuspension in PBS (10ml) and centrifugation. After the final separation, the zymosan was resuspended in 20ml PBS and stored as lml aliquots at -20°C. […]

pIC50	Compound
4.74	c1ccc(OCCN2CCC(CCn3ccnc3)CC2)cc1 [Example 87, 4-[2-(Imidazol-1-yl)ethyl]-1-(2-phenoxyethyl)piperidine]
4.51	C(=Cc1ccccc1)CN1CCC(CCn2ccnc2)CC1 [Example 90, 1-Cinnamyl-4-[2-(imidazol-1-yl)ethyl]-piperidine]
4.77	O=C(CN1CCC(CCn2ccnc2)CC1)Nc1ccc(C(F)(F)F)cc1 [Example 91, 4-[2-(Imidazol-1-yl)ethyl]piperidino-4'-trifluoromethylacetanilide]
4.25	CC(c1ccc(Cl)cc1)N1CCC(CCn2ccnc2)CC1 (stereo not shown) [Example 93, 1-[1-(4-chlorophenyl)ethyl]-4-[2-(imidazol-1-yl)-ethyl]piperidine]
4.21	Cl.Cl.c1ccc(CCCN2CCC(CCn3ccnc3)CC2)cc1 [Example 98, 4-[2-(imidazol-1-yl)ethyl]-1-(3-phenylpropyl)piperidine dihydrochloride]
4.27	c1ccc(CCCN2CCC(Cn3ccnc3)CC2)cc1 [Example 102, 4-Imidazol-1-ylmethyl-1-(3-phenylpropyl)piperidine]
4.55	CC1CN(CCCc2ccccc2)CCC1CCn1ccnc1 (stereo not shown) [Example 103, 4-[2-(Imidazol-1-yl)ethyl]-3-methyl-1-(3-phenylpropyl)piperidine]
4.85	c1ccc(CCCN2CCC(CCn3ccnc3-c3ccccc3)CC2)cc1 [Example 109, 4-[2-(2-Phenylimidazol-1-yl)ethyl]-1-(3-phenylpropyl)piperidine]
4.80	Cc1nc2ccccc2n1CCC1CCN(CCCc2ccccc2)CC1 [Example 112, 2-Methyl-1-{2-[1-(3-phenylpropyl)piperidin-4-yl]ethyl}benzimidazole]
4.48	CC(Cn1ccnc1)C1CCN(CCCc2ccccc2)CC1 (stereo not shown) [Example 113, 4-[2-(Imidazol-1-yl)-1-methylethyl]-1-(3-phenylpropyl)piperidine]
4.47	c1ccc(CCCN2CCC(CCn3cnc4ccccc43)CC2)cc1 [Example 114, 1-{2-[1-(3-Phenylpropyl)piperidin-4-yl]-ethyl}benzimidazole]
4.51	Cc1nc(Cl)c(Cl)n1CCC1CCN(CCCc2ccccc2)CC1 [Example 115, 4-[2-(4,5-Dichloro-2-methylimidazol-1-yl)ethyl]-1-(3-phenylpropyl)piperidine]
4.74	Cc1ncn(CCC2CCN(CCCc3ccccc3)CC2)c1C [Example 116, 4-[2-(4,5-Dimethylimidazol-1-yl)ethyl]-1-(3-phenylpropyl)piperidine]
4.68	Cc1nccn1CCC1CCN(CCCc2ccccc2)CC1 [Example 117, 4-[2-(2-Methylimidazol-1-yl)ethyl]-1-(3-phenylpropyl)piperidine]
4.28	Cc1ccc(CCCN2CCC(CCn3ccnc3)CC2)cc1 [Example 122, 4-[2-(Imidazol-1-yl)ethyl]-1-[3-(4-methylphenyl)propyl]piperidine]
4.46	Clc1ccc(CCCN2CCC(CCn3ccnc3)CC2)cc1 [Example 123, 1-[3-(4-Chlorophenyl)propyl]-4-[2-(imidazol-1-yl)ethyl]piperidine]
4.80	CSc1ccc(CCCN2CCC(CCn3ccnc3)CC2)cc1 [Example 127, 4-[2-(Imidazol-1-yl)ethyl]-1-[3-(4-methylthiophenyl)propyl]piperidine]
4.57	c1ccc(CCN2CCC(CCn3ccnc3)CC2)cc1 [Example 128, 4-[2-(Imidazol-1-yl)ethyl]-1-phenethylpiperidine]
4.80	c1ccc(CCCCN2CCC(CCn3ccnc3)CC2)cc1 [Example 129, 4-[2-(Imidazol-1-yl)ethyl]-1-(4-phenylbutyl)piperidine]
